The values that follow come from US9012443B2 (Amgen Inc., priority 2011, dated 2015).

What all share (format): cell-based
The target of data set [1] is Nav 1.5 (Homo sapiens (Human), UniProt Q14524). As to the kind of experiment: Nav 1.5 in vitro PX assay (PatchXpress whole cell voltage clamp). As to conditions: 293 cells stably transfected with Nav 1.5. The protocol: Nav 1.5 In Vitro PX Assay
293 cells stably transfected with Nav 1.5 were recorded in whole cell voltage clamp mode with the PatchXpress automated electrophysiology system according the manufacturer's specifications (Molecular Devices, LLC, Sunnyvale, Calif.). Cells were held at a holding potential of −50 mV to inactivate sodium channels. To elicit sodium currents the voltage was changed to −120 mV to recover a portion of the channels, followed by delivery of test pulses of 20 msec duration to 0 mV, at 0.1 Hz. A single concentration of test compound was applied to cells for a duration of 5 minutes. Peak sodium current was measured at the end of the compound addition period to determine percent inhibition. A minimum of two cells were tested per concentration. IC50 curves were fitted to percent inhibition as a function of concentration.

The target in data set [2] is T1, Nav 1.7 (Homo sapiens (Human), UniProt Q15858). As to the kind of experiment: Nav 1.7 in vitro PX assay (PatchXpress whole cell voltage clamp). As to conditions: 293 cells, human Nav1.7, partially inactivated state; read-out: Nav1.7 PX IC50 IP. In a few lines: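 HEK293 cells stably expressing human Nav1.7, whole-cell voltage clamp on PatchXpress, held at potential giving 20–50% inactivation; current elicited by 20 msec pulse to −10 mV.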
T1 sequence (Q15858 whole entry): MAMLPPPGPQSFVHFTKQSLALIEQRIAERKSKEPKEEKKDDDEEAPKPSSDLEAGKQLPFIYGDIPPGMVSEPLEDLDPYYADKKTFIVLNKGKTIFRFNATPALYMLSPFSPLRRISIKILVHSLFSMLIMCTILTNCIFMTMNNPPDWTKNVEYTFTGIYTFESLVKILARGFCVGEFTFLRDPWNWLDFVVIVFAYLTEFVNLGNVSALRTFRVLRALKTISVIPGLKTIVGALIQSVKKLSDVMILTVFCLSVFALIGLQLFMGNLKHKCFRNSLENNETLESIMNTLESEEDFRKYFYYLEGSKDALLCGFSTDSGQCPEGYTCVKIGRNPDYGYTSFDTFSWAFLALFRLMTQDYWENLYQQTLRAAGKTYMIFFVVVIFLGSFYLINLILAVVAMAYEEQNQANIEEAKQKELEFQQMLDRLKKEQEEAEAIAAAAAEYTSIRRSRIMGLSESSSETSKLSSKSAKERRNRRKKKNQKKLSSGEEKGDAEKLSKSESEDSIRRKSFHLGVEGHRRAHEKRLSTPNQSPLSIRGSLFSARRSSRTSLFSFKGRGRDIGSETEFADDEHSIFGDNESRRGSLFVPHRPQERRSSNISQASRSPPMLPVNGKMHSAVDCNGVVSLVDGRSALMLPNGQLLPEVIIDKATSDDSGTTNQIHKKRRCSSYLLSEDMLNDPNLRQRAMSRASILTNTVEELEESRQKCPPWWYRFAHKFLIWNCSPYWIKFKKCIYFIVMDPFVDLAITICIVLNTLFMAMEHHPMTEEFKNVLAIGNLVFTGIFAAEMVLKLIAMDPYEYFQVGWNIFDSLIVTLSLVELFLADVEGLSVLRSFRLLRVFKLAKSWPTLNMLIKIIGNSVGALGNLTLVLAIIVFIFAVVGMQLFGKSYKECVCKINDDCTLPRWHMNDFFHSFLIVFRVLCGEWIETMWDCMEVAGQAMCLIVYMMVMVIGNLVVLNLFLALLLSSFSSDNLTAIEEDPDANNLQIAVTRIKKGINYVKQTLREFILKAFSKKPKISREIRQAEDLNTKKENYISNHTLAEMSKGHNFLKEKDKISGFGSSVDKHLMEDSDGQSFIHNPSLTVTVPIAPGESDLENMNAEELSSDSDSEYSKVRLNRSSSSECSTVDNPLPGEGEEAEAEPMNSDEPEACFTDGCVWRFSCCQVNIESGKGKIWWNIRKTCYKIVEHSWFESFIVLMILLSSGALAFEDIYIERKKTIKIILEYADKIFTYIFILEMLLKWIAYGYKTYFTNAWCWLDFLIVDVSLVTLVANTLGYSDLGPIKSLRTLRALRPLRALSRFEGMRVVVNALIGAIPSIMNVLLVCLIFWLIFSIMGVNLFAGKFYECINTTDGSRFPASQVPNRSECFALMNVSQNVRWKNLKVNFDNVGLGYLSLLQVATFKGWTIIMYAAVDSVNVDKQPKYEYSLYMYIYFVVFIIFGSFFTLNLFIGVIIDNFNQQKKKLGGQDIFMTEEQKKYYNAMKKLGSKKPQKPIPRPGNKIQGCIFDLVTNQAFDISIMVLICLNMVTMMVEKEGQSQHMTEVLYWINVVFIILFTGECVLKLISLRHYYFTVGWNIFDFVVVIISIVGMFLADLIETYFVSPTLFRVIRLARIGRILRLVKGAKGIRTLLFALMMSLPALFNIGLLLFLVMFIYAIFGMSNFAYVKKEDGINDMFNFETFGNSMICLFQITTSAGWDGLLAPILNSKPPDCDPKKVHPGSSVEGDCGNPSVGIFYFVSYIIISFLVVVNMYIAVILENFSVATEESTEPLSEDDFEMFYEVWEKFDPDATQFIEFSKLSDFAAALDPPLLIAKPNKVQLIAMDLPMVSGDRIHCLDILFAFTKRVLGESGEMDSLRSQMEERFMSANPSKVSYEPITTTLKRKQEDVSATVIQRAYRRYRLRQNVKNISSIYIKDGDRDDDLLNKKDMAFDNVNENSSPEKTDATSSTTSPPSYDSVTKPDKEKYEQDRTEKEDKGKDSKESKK

In data set [3] the target is T1, Nav 1.7. As to the kind of experiment: Nav 1.7 IWQ in vitro assay (IonWorks Quattro population patch-clamp). As to conditions: at […]. In a few lines: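 HEK293 cells stably expressing Nav 1.7, recorded by automated population patch-clamp with a train of depolarizations producing increasing inactivation. Single compound concentration added during 3–8 min unclamped period, then same protocol repeated. Leak-corrected current at 26th pulse to −20 mV gave percent block (duplicate); IC50 fitted from concentration–block curves.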
A general note: In patch-clamp work, channel activity is measured electrically.

[4] abbreviates: first part of table, read-out: Nav 1.5 PX IC50.
The mark [5] stands for this setting: second part of table, read-out: Nav1.5 PX IC50.

Each structure is given as a SMILES string. Read-outs that look alike come from different tables or passages of the source.

Nav 1.5, sequence (Q14524 whole entry): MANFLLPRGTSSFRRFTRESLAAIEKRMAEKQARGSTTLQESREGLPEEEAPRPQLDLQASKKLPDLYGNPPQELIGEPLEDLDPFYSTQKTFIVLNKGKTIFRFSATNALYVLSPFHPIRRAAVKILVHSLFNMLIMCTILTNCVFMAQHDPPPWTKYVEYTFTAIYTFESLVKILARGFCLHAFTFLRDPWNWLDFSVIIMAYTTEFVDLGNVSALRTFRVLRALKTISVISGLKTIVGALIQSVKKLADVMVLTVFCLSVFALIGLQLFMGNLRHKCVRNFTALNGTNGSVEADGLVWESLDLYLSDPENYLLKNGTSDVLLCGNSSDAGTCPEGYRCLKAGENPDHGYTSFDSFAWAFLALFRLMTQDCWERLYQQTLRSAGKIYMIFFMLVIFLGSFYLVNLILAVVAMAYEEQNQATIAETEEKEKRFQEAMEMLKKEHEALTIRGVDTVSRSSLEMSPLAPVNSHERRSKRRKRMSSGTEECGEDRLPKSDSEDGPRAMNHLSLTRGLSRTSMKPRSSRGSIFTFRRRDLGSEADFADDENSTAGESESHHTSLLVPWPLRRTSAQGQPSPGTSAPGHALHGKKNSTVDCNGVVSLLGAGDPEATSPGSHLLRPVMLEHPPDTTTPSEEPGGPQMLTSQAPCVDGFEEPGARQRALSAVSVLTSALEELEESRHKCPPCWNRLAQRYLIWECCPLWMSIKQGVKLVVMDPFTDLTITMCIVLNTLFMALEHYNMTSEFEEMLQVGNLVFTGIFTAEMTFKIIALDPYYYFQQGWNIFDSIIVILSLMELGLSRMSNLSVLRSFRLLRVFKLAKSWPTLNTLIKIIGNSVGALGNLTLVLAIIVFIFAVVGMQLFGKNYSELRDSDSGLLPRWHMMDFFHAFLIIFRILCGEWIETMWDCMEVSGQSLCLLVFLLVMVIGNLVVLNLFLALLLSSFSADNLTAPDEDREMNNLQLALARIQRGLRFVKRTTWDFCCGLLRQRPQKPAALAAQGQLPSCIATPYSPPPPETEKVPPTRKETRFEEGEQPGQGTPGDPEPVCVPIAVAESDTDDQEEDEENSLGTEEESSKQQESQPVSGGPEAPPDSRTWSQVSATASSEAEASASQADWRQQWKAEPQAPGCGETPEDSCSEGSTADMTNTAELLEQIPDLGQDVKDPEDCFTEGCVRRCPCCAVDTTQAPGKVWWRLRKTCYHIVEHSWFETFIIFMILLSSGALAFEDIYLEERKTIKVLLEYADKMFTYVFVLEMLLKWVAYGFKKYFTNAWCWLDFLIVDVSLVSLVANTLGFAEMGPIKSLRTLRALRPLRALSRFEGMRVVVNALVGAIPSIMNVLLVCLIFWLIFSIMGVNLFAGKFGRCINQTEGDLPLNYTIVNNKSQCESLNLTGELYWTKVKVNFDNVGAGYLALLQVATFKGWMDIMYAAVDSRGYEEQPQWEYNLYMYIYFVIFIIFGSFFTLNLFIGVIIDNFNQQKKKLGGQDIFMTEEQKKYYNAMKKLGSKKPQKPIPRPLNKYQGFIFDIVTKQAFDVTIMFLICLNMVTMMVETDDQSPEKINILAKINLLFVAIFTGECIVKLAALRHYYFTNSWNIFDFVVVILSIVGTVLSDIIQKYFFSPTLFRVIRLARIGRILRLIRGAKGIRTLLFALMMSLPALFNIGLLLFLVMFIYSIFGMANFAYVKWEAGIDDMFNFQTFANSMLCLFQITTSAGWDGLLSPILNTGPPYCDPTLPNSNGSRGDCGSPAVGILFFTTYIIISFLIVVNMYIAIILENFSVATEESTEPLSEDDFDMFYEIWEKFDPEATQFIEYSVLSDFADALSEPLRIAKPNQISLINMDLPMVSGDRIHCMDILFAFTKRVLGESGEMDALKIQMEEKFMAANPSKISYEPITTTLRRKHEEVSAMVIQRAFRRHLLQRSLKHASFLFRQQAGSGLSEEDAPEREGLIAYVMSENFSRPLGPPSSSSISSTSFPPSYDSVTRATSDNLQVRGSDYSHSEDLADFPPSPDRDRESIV

In the case of `COc1cc(Cl)ccc1-c1cccc2cc(S(=O)(=O)Nc3ncns3)ccc12` [Example 30], in data set [1] (setting [4]), the IC50 – broadly, the concentration needed to halve the response being measured – turned out to be 19900 nM.
Still for that read-out and setting: as for `Nc1cc(Cl)ccc1-c1cccc2cc(S(=O)(=O)Nc3ncns3)ccc12` [Example 31], the figure is > 30000 nM; as for `Cc1cc(Cl)ccc1-c1cccc2cc(S(=O)(=O)Nc3ncns3)ccc12` [Example 33], 9580 nM.
For the molecule `O=S(=O)(Nc1ncns1)c1ccc2c(-c3ccc(Cl)cc3)cccc2c1` [Example 34], the IC50 in data set [1] (setting [4]) was found to be 5960 nM.
On the same count and under the same terms, as for `O=S(=O)(Nc1ncns1)c1ccc2c(-c3ccc(Cl)cc3F)cccc2c1` [Example 35], the figure is 9990 nM; as for `O=S(=O)(Nc1ncns1)c1ccc2c(-c3ccc(C(F)(F)F)cc3F)cccc2c1` [Example 36], 15100 nM; as for `O=S(=O)(Nc1ncns1)c1ccc2c(-c3ccc(C(F)(F)F)cc3)cccc2c1` [Example 37], 14400 nM.
Take `COc1cc(C)ccc1-c1nccc2cc(S(=O)(=O)Nc3nccs3)ccc12` [Example 175]: the IC50 in data set [1] (setting [5]) is > 30000 nM.
`COc1cc(Cl)c(Cl)cc1-c1nccc2cc(S(=O)(=O)Nc3nccs3)ccc12` [Example 177, 1-(4,5-DICHLORO-2-METHOXYPHENYL)-N-(THIAZOL-2-YL)ISOQUINOLINE-6-SULFONAMIDE]: the IC50 in data set [1] (setting [5]) was > 30000 nM; in data set [2], 500 nM.
The corresponding values for `N#CCOc1cc(F)ccc1-c1nccc2cc(S(=O)(=O)Nc3nccs3)ccc12` [Example 192, 1-(2-(CYANOMETHOXY)-4-FLUOROPHENYL)-N-(THIAZOL-2-YL)ISOQUINOLINE-6-SULFONAMIDE] are > 30000 nM and 330 nM.
As to `COc1cc(C(F)(F)F)ccc1-c1ncc(O)c2cc(S(=O)(=O)Nc3nccs3)ccc12` [Example 232, 4-HYDROXY-1-(2-METHOXY-4-(TRIFLUOROMETHYL)PHENYL)-N-(THIAZOL-2-YL)ISOQUINOLINE-6-SULFONAMIDE], the 50% inhibitory concentration (IC50) in data set [1] (setting [5]) was found to be 20400 nM; in data set [2], 380 nM.
The corresponding values for `COc1cc(C(F)(F)F)ccc1-c1cnnc2cc(S(=O)(=O)Nc3nccs3)ccc12` [Example 259, 4-(2-METHOXY-4-(TRIFLUOROMETHYL)PHENYL)-N-(THIAZOL-2-YL)CINNOLINE-7-SULFONAMIDE] are > 30000 nM and 320 nM.
The corresponding values for `COc1cc(C(F)F)c(Cl)cc1-c1ncnc2cc(S(=O)(=O)Nc3nccs3)ccc12` [Example 270, 4-(5-CHLORO-4-(DIFLUOROMETHYL)-2-METHOXYPHENYL)-N-(THIAZOL-2-YL)QUINAZOLINE-7-SULFONAMIDE] are 7440 nM and 150 nM.
The corresponding values for `COc1cc(F)ccc1-c1ncnc2cc(S(=O)(=O)Nc3nccs3)ccc12` [Example 271, 4-(4-FLUORO-2-METHOXYPHENYL)-N-(THIAZOL-2-YL)QUINAZOLINE-7-SULFONAMIDE] are > 30000 nM and 450 nM.
Regarding `COc1ccccc1-c1ncnc2cc(S(=O)(=O)Nc3nccs3)ccc12` [Example 272, 4-(2-METHOXYPHENYL)-N-(THIAZOL-2-YL)QUINAZOLINE-7-SULFONAMIDE], the IC50 in data set [1] (setting [5]) was > 30000 nM; in data set [2] it was 460 nM.
The corresponding values for `COc1ccccc1-c1cncc2cc(S(=O)(=O)Nc3nccs3)ccc12` [Example 289, 4-(2-methoxyphenyl)-N-(thiazol-2-yl)isoquinoline-7-sulfonamide] are > 30000 nM and 340 nM.
Regarding `COc1cc(C(F)(F)F)ccc1-c1n[nH]c(=O)c2cc(S(=O)(=O)Nc3nccs3)ccc12` [Example 293, 1-(2-METHOXY-4-(TRIFLUOROMETHYL)PHENYL)-4-OXO-N-(THIAZOL-2-YL)-3,4-DIHYDROPHTHALAZINE-6-SULFONAMIDE], the IC50 in data set [1] (setting [5]) was > 30000 nM; in data set [2], 150 nM.
The corresponding values for `COc1cc(C(F)(F)F)ccc1-c1ccnc2cc(S(=O)(=O)Nc3nccs3)c(F)cc12` [Example 319, 6-FLUORO-4-(2-METHOXY-4-(TRIFLUOROMETHYL)PHENYL)-N-(THIAZOL-2-YL)QUINOLINE-7-SULFONAMIDE 2,2,2-TRIFLUOROACETATE] are 2790 nM and 407 nM.
The corresponding values for `COc1ccccc1-c1ccnc2cc(S(=O)(=O)Nc3ncns3)ccc12` [Example 320, 4-(2-METHOXYPHENYL)-N-(1,2,4-THIADIAZOL-5-YL)QUINOLINE-7-SULFONAMIDE 2,2,2-TRIFLUOROACETATE] are > 30000 nM and 155 nM.
`COc1ccc(-c2cccc(F)c2)cc1-c1ccnc2cc(S(=O)(=O)Nc3ccncn3)ccc12` [Example 321, 4-(3′-FLUORO-4-METHOXY-[1,1′-BIPHENYL]-3-YL)-N-(PYRIMIDIN-4-YL)QUINOLINE-7-SULFONAMIDE]: the IC50 was > 30000 nM in data set [1] (setting [5]) and 251 nM in data set [2].
The corresponding values for `Cc1cc(Cl)ccc1-c1ccnc2cc(S(=O)(=O)Nc3ncns3)ccc12` [Example 322] are > 30000 nM and 333 nM.
The corresponding values for `COc1ccccc1-c1c(C#N)cnc2cc(S(=O)(=O)Nc3nccs3)ccc12` [Example 324, 3-CYANO-4-(2-METHOXYPHENYL)-N-(THIAZOL-2-YL)QUINOLINE-7-SULFONAMIDE] are > 30000 nM and 662 nM.
The corresponding values for `COc1cc(C(F)(F)F)ccc1-c1ccnc2cc(S(=O)(=O)Nc3nccs3)c(C)cc12` [Example 326, 4-(2-METHOXY-4-(TRIFLUOROMETHYL)PHENYL)-6-METHYL-N-(THIAZOL-2-YL)QUINOLINE-7-SULFONAMIDE] are 2500 nM and 660 nM.
Consider `COc1cc(C#N)ccc1-c1cccc2cc(S(=O)(=O)Nc3ncns3)ccc12` [Example 330], for which the concentration for half-maximal inhibition (IC50) is > 30000 nM in data set [1] (setting [5]) and 118 nM in data set [2].
The corresponding values for `COc1cc(-c2cccc(F)c2)c(Cl)cc1-c1nccc2cc(S(=O)(=O)Nc3nncs3)ccc12` [Example 332, 1-(2-CHLORO-3′-FLUORO-5-METHOXY-[1,1′-BIPHENYL]-4-YL)-N-(1,3,4-THIADIAZOL-2-YL)ISOQUINOLINE-6-SULFONAMIDE] are 20700 nM and 28 nM.
The corresponding values for `COc1cc(-c2cccc(F)c2)c(Cl)cc1-c1nccc2cc(S(=O)(=O)Nc3ccncn3)ccc12` [Example 333, 1-(2-CHLORO-3′-FLUORO-5-METHOXY-[1,1′-BIPHENYL]-4-YL)-N-(PYRIMIDIN-4-YL)ISOQUINOLINE-6-SULFONAMIDE] are 20300 nM and 75 nM.
The corresponding values for `COc1cc(-c2cccc(F)c2)c(Cl)cc1-c1nccc2cc(S(=O)(=O)Nc3ccon3)ccc12` [Example 335, 1-(2-CHLORO-3′-FLUORO-5-METHOXY-[1,1′-BIPHENYL]-4-YL)-N-(ISOXAZOL-3-YL)ISOQUINOLINE-6-SULFONAMIDE] are > 30000 nM and 52 nM.
In the case of `COc1cc(Cl)c(C#N)cc1-c1nccc2cc(S(=O)(=O)Nc3ncns3)ccc12` [Example 336, 1-(4-CHLORO-5-CYANO-2-METHOXYPHENYL)-N-(1,2,4-THIADIAZOL-5-YL)ISOQUINOLINE-6-SULFONAMIDE], the figures for the IC50 in data set [1] (setting [5]) and in data set [2] were > 30000 nM and 156 nM, respectively.
The corresponding values for `COc1cc(Cl)c(C#N)cc1-c1nccc2cc(S(=O)(=O)Nc3nncs3)ccc12` [Example 337, 1-(4-CHLORO-5-CYANO-2-METHOXYPHENYL)-N-(1,3,4-THIADIAZOL-2-YL)ISOQUINOLINE-6-SULFONAMIDE] are > 30000 nM and 388 nM.
The corresponding values for `COc1cc(-c2cc(F)cc(F)c2)c(C#N)cc1-c1nccc2cc(S(=O)(=O)Nc3nncs3)ccc12` [Example 338, 1-(2-CYANO-3′,5′-DIFLUORO-5-METHOXY-[1,1′-BIPHENYL]-4-YL)-N-(1,3,4-THIADIAZOL-2-YL)ISOQUINOLINE-6-SULFONAMIDE] are > 30000 nM and 29 nM.
The corresponding values for `COc1cc(-c2cccc(C(F)(F)F)c2)c(C#N)cc1-c1nccc2cc(S(=O)(=O)Nc3nncs3)ccc12` [Example 339, 1-(2-CYANO-5-METHOXY-3′-(TRIFLUOROMETHYL)-[1,1′-BIPHENYL]-4-YL)-N-(1,3,4-THIADIAZOL-2-YL)ISOQUINOLINE-6-SULFONAMIDE] are > 30000 nM and 31 nM.
For `COc1cc(-c2cccc(F)c2)c(C#N)cc1-c1nccc2cc(S(=O)(=O)Nc3ncns3)ccc12` [Example 340, 1-(2-CYANO-3′-FLUORO-5-METHOXY-[1,1′-BIPHENYL]-4-YL)-N-(1,2,4-THIADIAZOL-5-YL)ISOQUINOLINE-6-SULFONAMIDE], the figures for the IC50 in data set [1] (setting [5]) and in data set [2] were > 30000 nM and 56 nM, respectively.
`COc1cc(-c2cccc(F)c2)c(C#N)cc1-c1nccc2cc(S(=O)(=O)Nc3nncs3)ccc12` [Example 341, 1-(2-CYANO-3′-FLUORO-5-METHOXY-[1,1′-BIPHENYL]-4-YL)-N-(1,3,4-THIADIAZOL-2-YL)ISOQUINOLINE-6-SULFONAMIDE]: the figures for the IC50 in data set [1] (setting [5]) and in data set [2] were > 30000 nM and 69 nM, respectively.
As to `O=S(=O)(Nc1ccncn1)c1ccc2c(-c3cnn(-c4cccc(Cl)c4)c3)nccc2c1` [Example 429, 1-(1-(3-CHLOROPHENYL)-1H-PYRAZOL-4-YL)-N-(PYRIMIDIN-4-YL)ISOQUINOLINE-6-SULFONAMIDE], the “Nav1.7 Single Point Data IWQ (at […]) (%)” value in data set [3] is 54.7%. Also, the IC50 in data set [2] was > 30000 nM.
